Reference: patent US6358885B1, “Substituted phenylheterocyclic herbicides” (Mississippi State University, priority 1992, dated 2002)

Assays:
bedstraw = assay: Test C preemergence/postemergence greenhouse plant response rating 0 to 100; assay type: in vivo, Galium aparine; details: POSTEMERGENCE; for Plant response rating, Bedstraw: 0 to 100 scale
Procedure, shortened: (§1)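 Compounds in non-phytotoxic solvent went onto sandy loam before emergence (seeded one day earlier) or onto plants at the one-to-four leaf stage. Duck salad was treated via flood water (~2.5 cm, maintained) over silt loam.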

wild buckwheat = assay: as above; assay type: in vivo, Polygonum convolvulus; details: POSTEMERGENCE; for Plant response rating, Wild buckwheat: 0 to 100 scale
Procedure, shortened: as §1

morningglory [1] = assay: as above; assay type: in vivo, Ipomoea hederacea; details: POSTEMERGENCE; for Plant response rating, Morningglory: 0 to 100 scale
Procedure, shortened: as §1

soybean [2] = assay: as above; assay type: in vivo, Glycine max; details: POSTEMERGENCE; for Plant response rating, Soybean: 0 to 100 scale
Procedure, shortened: as §1

rape = assay: Test B preemergence/postemergence greenhouse plant response rating 0 to 10; assay type: in vivo, Brassica napus; details: 0 to 10 scale
Procedure, shortened: (§2)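 Test chemicals were sprayed onto freshly planted seed and, concurrently, onto young plants between the one and four leaf stage. After a twelve- to sixteen-day greenhouse period, each species was visually compared with untreated controls.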

wild oat = assay: as above; assay type: in vivo, Avena fatua; details: 0 to 10 scale
Procedure, shortened: as §2

chickweed [3] = assay: as above; assay type: in vivo, Stellaria media; details: 0 to 10 scale
Procedure, shortened: as §2

chickweed [4] = assay: Test C preemergence/postemergence greenhouse plant response rating 0 to 100; assay type: in vivo, Stellaria media; details: POSTEMERGENCE; for Plant response rating, Chickweed: 0 to 100 scale
Procedure, shortened: as §1

crabgrass = assay: Test B preemergence/postemergence greenhouse plant response rating 0 to 10; assay type: in vivo, Digitaria spp.; details: 0 to 10 scale
Procedure, shortened: as §2

wheat = assay: as above; assay type: in vivo, Triticum aestivum; details: 0 to 10 scale
Procedure, shortened: as §2

downy brome = assay: Test C preemergence/postemergence greenhouse plant response rating 0 to 100; assay type: in vivo, Bromus tectorum; details: POSTEMERGENCE; for Plant response rating Downy Brome: 0 to 100 scale
Procedure, shortened: as §1

morningglory [5] = assay: Test B preemergence/postemergence greenhouse plant response rating 0 to 10; assay type: in vivo, Ipomoea hederacea; details: 0 to 10 scale
Procedure, shortened: as §2

sorghum = assay: as above; assay type: in vivo, Sorghum bicolor; details: 0 to 10 scale
Procedure, shortened: as §2

umbrella sedge = assay: Test C flood test plant response rating 0 to 100; assay type: in vivo, Cyperus difformis; details: for Plant response rating (0 to 100), Umbrella sedge: under POSTEMERGENCE head (flood test species); for Plant response rating Umbrella sedge: flood test species listed under POSTEMERGENCE, 0 to 100 scale
Description: The compounds evaluated in this test were formulated in a non-phytoxic solvent and applied to the soil surface before plant seedlings emerged (preemergence application), to water that covered the soil surface (flood application), and to plants that were in the one-to-four leaf stage (postemergence application). A sandy loam soil was used for the preemergence and postemergence tests, while a silt loam soil was used in the flood test. Water depth was approximately 2.5 cm for the flood test and was maintained at this level for the duration of the test. Plant species in the preemergence and postemergence tests consisted of barley (Hordeum vulgare), bedstraw (Galium aparine), blackgrass (Alopecurus myosuroides), chickweed (Stellaria media), corn (Zea mays), cotton (Gossypium hirsutum), crabgrass (Digitaria sanguinalis), downy brome (Bromus tectorum), giant foxtail (Setaria faberii), lambsquarters (Chenopodium album), morningglory (Ipomoea hederacea), pigweed ([…]), rape (Brassica napus), ryegrass (Lolium multiflorum), sorghum (Sorghum bicolor), soybean (Glycine max), speedwell (Veronica persica), sugar beet (Beta vulgaris), velvetleaf (Abutilon theophrasti), wheat (Triticum aestivum), wild buckwheat (Polygonum convolvulus), and wild oat (Avena fatua). All plant species were planted one day before application of the compound for the preemergence portion-of this test. Plantings of these species were adjusted to produce plants of appropriate size for the post-emergence portion of the test. […] All plant species were grown using normal greenhouse practices. Visual evaluations of injury expressed on treated plants, when compared to untreated controls, were recorded approximately fourteen to twenty one days after application of the test compound. […] A dash (-) response means no test result.

purple nutsedge = assay: Test B preemergence/postemergence greenhouse plant response rating 0 to 10; assay type: in vivo, Cyperus rotundus; details: 0 to 10 scale
Procedure, shortened: as §2

corn = assay: as above; assay type: in vivo, Zea mays; details: 0 to 10 scale
Procedure, shortened: as §2

barley = assay: Test C preemergence/postemergence greenhouse plant response rating 0 to 100; assay type: in vivo, Hordeum vulgare; details: POSTEMERGENCE; for Plant response rating Barley Igri: 0 to 100 scale
Procedure, shortened: as §1

soybean [6] = assay: Test B preemergence/postemergence greenhouse plant response rating 0 to 10; assay type: in vivo, Glycine max; details: 0 to 10 scale
Procedure, shortened: as §2

**Q.** Which results are given for `CC(C)OC(=O)COc1cc(-c2nn3c(c2Cl)CCCC3)c(F)cc1Cl` [Compound 39]?
**A.** Plant response rating, Bedstraw (bedstraw; 62 g/ha): 70; Plant response rating, Bedstraw (bedstraw; 125 g/ha): 100; Plant response rating (0 to 100), Bedstraw (bedstraw; Rate 31 g/ha): 60; Plant response rating, Wild buckwheat (wild buckwheat; 62 g/ha): 90; Plant response rating, Wild buckwheat (wild buckwheat; 125 g/ha): 100; Plant response rating (0 to 100), Wild buckwheat (wild buckwheat; Rate 31 g/ha): 70; Plant response rating, Morningglory (morningglory [1]; 62 g/ha): 100; Plant response rating, Morningglory (morningglory [1]; 125 g/ha): 100; Plant response rating (0 to 100), Morningglory (morningglory [1]; Rate 16 g/ha): 60; Plant response rating (0 to 100), Morningglory (morningglory [1]; Rate 31 g/ha): 100; Plant response rating, Soybean (soybean [2]; 62 g/ha): 60; Plant response rating, Soybean (soybean [2]; 125 g/ha): 70; Plant response rating (0 to 100), Soybean (soybean [2]; Rate 16 g/ha): 30; Plant response rating (0 to 100), Soybean (soybean [2]; Rate 31 g/ha): 50; Plant response rating, Rape (rape; POSTEMERGENCE, Rate 50 g/ha): 5; Plant response rating, Rape (rape; PREEMERGENCE, Rate 50 g/ha): 8; Plant response rating, Rape (rape; Rate 200 g/ha, POSTEMERGENCE): 10; Plant response rating, Rape (rape; Rate 200 g/ha, PREEMERGENCE): 10; Plant response rating, Wild oat (wild oat; POSTEMERGENCE, Rate 50 g/ha): 3; Plant response rating, Wild oat (wild oat; PREEMERGENCE, Rate 50 g/ha): 0; Plant response rating, Wild oat (wild oat; Rate 200 g/ha, POSTEMERGENCE): 3; Plant response rating, Chickweed (chickweed [3]; POSTEMERGENCE, Rate 50 g/ha): 8; Plant response rating, Chickweed (chickweed [3]; POSTEMERGENCE, Rate 200 g/ha): 10; Plant response rating, Chickweed (chickweed [3]; PREEMERGENCE, Rate 50 g/ha): 0; Plant response rating, Chickweed (chickweed [3]; Rate 200 g/ha, PREEMERGENCE): 5; Plant response rating, Chickweed (chickweed [4]; 62 g/ha): 40; Plant response rating, Chickweed (chickweed [4]; 125 g/ha): 70; Plant response rating (0 to 100), Chickweed (chickweed [4]; Rate 16 g/ha): 20; Plant response rating (0 to 100), Chickweed (chickweed [4]; Rate 31 g/ha): 30; Plant response rating, Crabgrass (crabgrass; POSTEMERGENCE, Rate 50 g/ha): 5; Plant response rating, Crabgrass (crabgrass; POSTEMERGENCE, Rate 200 g/ha): 4; Plant response rating, Crabgrass (crabgrass; PREEMERGENCE, Rate 50 g/ha): 0; Plant response rating, Crabgrass (crabgrass; Rate 200 g/ha, PREEMERGENCE): 2; Plant response rating, Wheat (wheat; POSTEMERGENCE, Rate 50 g/ha): 4; Plant response rating, Wheat (wheat; PREEMERGENCE, Rate 50 g/ha): 0; Plant response rating, Wheat (wheat; Rate 200 g/ha, POSTEMERGENCE): 5; Plant response rating, Wheat (wheat; Rate 200 g/ha, PREEMERGENCE): 0; Plant response rating Downy Brome (downy brome; 62 g/ha): 30; Plant response rating Downy Brome (downy brome; 125 g/ha): 40; Plant response rating (0 to 100), Downy Brome (downy brome; Rate 16 g/ha): 10; Plant response rating (0 to 100), Downy Brome (downy brome; Rate 31 g/ha): 20; Plant response rating, Morningglory (morningglory [5]; POSTEMERGENCE, Rate 50 g/ha): 8; Plant response rating, Morningglory (morningglory [5]; PREEMERGENCE, Rate 50 g/ha): 0; Plant response rating, Morningglory (morningglory [5]; Rate 200 g/ha, POSTEMERGENCE): 9; Plant response rating, Morningglory (morningglory [5]; Rate 200 g/ha, PREEMERGENCE): 2; Plant response rating, Sorghum (sorghum; POSTEMERGENCE, Rate 50 g/ha): 5; Plant response rating, Sorghum (sorghum; PREEMERGENCE, Rate 50 g/ha): 0; Plant response rating, Sorghum (sorghum; Rate 200 g/ha, POSTEMERGENCE): 5; Plant response rating, Sorghum (sorghum; Rate 200 g/ha, PREEMERGENCE): 0; Plant response rating (0 to 100), Umbrella sedge (umbrella sedge; Rate 16 g/ha): 0; Plant response rating (0 to 100), Umbrella sedge (umbrella sedge; Rate 31 g/ha): 0; Plant response rating Umbrella sedge (umbrella sedge; 62 g/ha): 60; Plant response rating Umbrella sedge (umbrella sedge; 125 g/ha): 70; Plant response rating, Nutsedge (purple nutsedge; POSTEMERGENCE, Rate 50 g/ha): 5; Plant response rating, Nutsedge (purple nutsedge; PREEMERGENCE, Rate 50 g/ha): 0; Plant response rating, Nutsedge (purple nutsedge; Rate 200 g/ha, POSTEMERGENCE): 4; Plant response rating, Nutsedge (purple nutsedge; Rate 200 g/ha, PREEMERGENCE): 0; Plant response rating, Corn (corn; POSTEMERGENCE, Rate 50 g/ha): 5; Plant response rating, Corn (corn; POSTEMERGENCE, Rate 200 g/ha): 5; Plant response rating, Corn (corn; PREEMERGENCE, Rate 50 g/ha): 0; Plant response rating, Corn (corn; Rate 200 g/ha, PREEMERGENCE): 0; Plant response rating Barley Igri (barley; 62 g/ha): 30; Plant response rating Barley Igri (barley; 125 g/ha): 40; Plant response rating (0 to 100), Barley Igri (barley; Rate 16 g/ha): 20; Plant response rating (0 to 100), Barley Igri (barley; Rate 31 g/ha): 30; Plant response rating, Soybean (soybean [6]; POSTEMERGENCE, Rate 50 g/ha): 2; Plant response rating, Soybean (soybean [6]; PREEMERGENCE, Rate 50 g/ha): 0; Plant response rating, Soybean (soybean [6]; Rate 200 g/ha, POSTEMERGENCE): 4; Plant response rating, Soybean (soybean [6]; Rate 200 g/ha, PREEMERGENCE): 0
